The results in this text go back to PubChem BioAssay AID296 (DTP/NCI, 2004).

The structures appear in SMILES notation. Values joined by “and” are separate entries in the source; they are usually repeats but may differ in a detail not shown here. Equal values may be shown once. Results filed as inconclusive are left out.

For this experiment, the system named is MX-1 breast xenograft, nude mice, tumor weight T/C. In words: NCI In Vivo Anticancer Drug Screen. Data for tumor model Human Mammary Carcinoma MX-1 Xenograft (intrarenal inoculation) in NU/NU Swiss (nude) mice. To be noted: endpoint: mean tumor weight change, higher = larger tumour. In short, it runs like this: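 Mice carrying the implanted tumor receive either test agent or vehicle. Tumor size or survival is then recorded for both groups. Results are stated as the treated-to-control quotient.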
A general note: Xenograft models place foreign cells or tissue in a host animal.

The mark [1] stands for this setting: dose: 1200.0 mg/kg/injection, schedule: Q04DX003 (sc), vehicle: saline with Tween-80.
Where [2] appears, read: dose: 2400.0 mg/kg/injection, schedule: Q04DX003 (sc), vehicle: saline with Tween-80.
Setting [3] is: dose: 300.0 mg/kg/injection, schedule: Q04DX003 (sc), vehicle: saline.
Setting [4] is: dose: 600.0 mg/kg/injection, schedule: Q04DX003 (sc), vehicle: saline.
Setting [5] is: dose: 100.0 mg/kg/injection, schedule: Q04DX003 (sc), vehicle: saline with Tween-80.
The mark [6] stands for this setting: dose: 200.0 mg/kg/injection, schedule: Q04DX003 (sc), vehicle: saline with Tween-80.
Where [7] appears, read: dose: 300.0 mg/kg/injection, schedule: Q04DX003 (sc), vehicle: saline with Tween-80.
Where [8] appears, read: dose: 600.0 mg/kg/injection, schedule: Q04DX003 (sc), vehicle: saline with Tween-80.
Setting [9] is: dose: 150.0 mg/kg/injection, schedule: Q04DX003 (sc), vehicle: Klucel (hydroxypropylcellulose) (HPC).
The mark [10] stands for this setting: dose: 300.0 mg/kg/injection, schedule: Q04DX003 (sc), vehicle: Klucel (hydroxypropylcellulose) (HPC).
The mark [11] stands for this setting: dose: 25.0 mg/kg/injection, schedule: Q01DX010 (sc), vehicle: saline.

Take `CCOC(=O)CNC(=O)CCCCSc1ncnc2nc[nH]c12`: the T/C is, setting by setting: under setting [1], 109 % of control; under setting [2], 86 % of control.

`Cn1cnc([N+](=O)[O-])c1SCC(=O)O`: the T/C is, setting by setting: under setting [3], 80 % of control; under setting [4], 43 % of control; (dose: 1200.0 mg/kg/injection, schedule: Q04DX003 (sc), vehicle: saline) 88 % of control; (dose: 2400.0 mg/kg/injection, schedule: Q04DX003 (sc), vehicle: saline) 71 % of control.

On to `O=C(O)Cc1cccc2c(=O)cc(-c3ccccc3)oc12`, for which the T/C (dose: 100.0 mg/kg/injection, schedule: Q04DX003 (ip), vehicle: suspension in saline) was 75 % of control.

As for `CCN(CC)CCOC(=O)Cc1cccc2c(=O)cc(-c3ccccc3)oc12`, the T/C was 107 % of control under setting [5] and 102 % of control under setting [6].

For the compound `COc1cc2cc(c1Cl)N(C)C(=O)CC(OC(=O)CC(C)C)C1(C)OC1C(C)C1CC(O)(NC(=O)O1)C(OC)/C=C/C=C(C)C2` (stereo not given), the T/C is, setting by setting: (dose: 25.0 micrograms/kg/injection, schedule: Q01DX010 (sc), vehicle: saline + alcohol) -12 % of control; (dose: 100.0 micrograms/kg/injection, schedule: Q01DX010 (sc), vehicle: saline + alcohol) -54 % of control.

On to `O=Cc1ccc([N+](=O)[O-])s1`, for which the T/C was 90 % of control (dose: 25.0 mg/kg/injection, schedule: Q01DX010 (sc), vehicle: saline with Tween-80); 89 % of control (dose: 50.0 mg/kg/injection, schedule: Q01DX010 (sc), vehicle: saline with Tween-80); 56 % of control (dose: 100.0 mg/kg/injection, schedule: Q01DX010 (sc), vehicle: saline with Tween-80).

Regarding `C1OCN2CSCC12` (stereo not given), the T/C runs as follows: under setting [5], 94 % of control; under setting [6], 158 % of control; (dose: 400.0 mg/kg/injection, schedule: Q04DX003 (sc), vehicle: saline with Tween-80) 80 % of control.

Regarding `CC(=O)Nc1ccc(C(=O)C=O)cc1`, under “dose: 200.0 mg/kg/injection, schedule: Q01DX010 (sc), vehicle: saline with Tween-80”, the T/C is 55 % of control.

As for `CC[C@H](CC[C@@H](C)C1CC[C@H]2[C@@H]3CC=C4C[C@@H](OP(=O)(N5CC5)N5CC5)CC[C@]4(C)[C@H]3CC[C@]12C)C(C)C` (stereo not given in full), the T/C is 71 % of control under setting [7], 113 % of control under setting [8], 65 % of control under setting [1] and 62 % of control under setting [2].

`OC(C1CO1)C(O)C1CO1` (stereo not given): the T/C (dose: 1.0 mg/kg/injection, schedule: Q01DX010 (sc), vehicle: saline) was 5 % of control and 18 % of control.

Take `N/C(=N\OC(=O)Nc1ccc(CSc2ccc(Cl)cc2)o1)c1ccccn1`: the T/C by setting is: (dose: 9.38 mg/kg/injection, schedule: Q04DX003 (sc), vehicle: saline) 62 % of control; (dose: 18.75 mg/kg/injection, schedule: Q04DX003 (sc), vehicle: saline) 66 % of control; (dose: 37.5 mg/kg/injection, schedule: Q04DX003 (sc), vehicle: saline) 40 % of control; under setting [9], 102 % of control; under setting [10], 97 % of control.

`CS(=O)(=O)OCCN(CCOS(C)(=O)=O)c1ccc(C=O)cc1`: the T/C under setting [11] was -67 % of control and -51 % of control.

Take `CC(=O)NC(Cc1ccc(F)cc1)C(=O)O` (stereo not given): the T/C is, setting by setting: under setting [7], 100 % of control; under setting [8], 101 % of control; under setting [1], 120 % of control; under setting [2], 111 % of control.

For `ClCCCN1CCCCC1CCl` (stereo not given), the T/C (dose: 12.5 mg/kg/injection, schedule: Q04DX003 (sc), vehicle: saline) is 51 % of control; the T/C (dose: 25.0 mg/kg/injection, schedule: Q04DX003 (sc), vehicle: saline) was 1 % of control; the T/C (dose: 50.0 mg/kg/injection, schedule: Q04DX003 (sc), vehicle: saline) was 3 % of control.

For the compound `CN(C)CC(Cl)CCl` (stereo not given), the T/C (dose: 75.0 mg/kg/injection, schedule: Q04DX003 (sc), vehicle: saline) was 50 % of control; the T/C (dose: 150.0 mg/kg/injection, schedule: Q04DX003 (sc), vehicle: saline) is 85 % of control; the T/C under setting [3] was 28 % of control.

In the case of `O=c1nc(-c2ccco2)sc(=O)[nH]1`, the T/C runs as follows: (dose: 75.0 mg/kg/injection, schedule: Q04DX003 (sc), vehicle: Klucel (hydroxypropylcellulose) (HPC)) 122 % of control; under setting [9], 90 % of control; under setting [10], 54 % of control; (dose: 600.0 mg/kg/injection, schedule: Q04DX003 (sc), vehicle: Klucel (hydroxypropylcellulose) (HPC)) 58 % of control.

`O=C(O)CC(=O)O.[NH-]CC[NH-].[Pt+2]`: the T/C was -100 % of control (dose: 12.5 mg/kg/injection, schedule: Q01DX010 (sc), vehicle: dextrose) and -100 % of control (dose: 100.0 mg/kg/injection, schedule: Q01DX010 (sc), vehicle: dextrose).

For `CC(=O)OCC1OC(OC(C)=O)C(NC(=O)N(CCCl)N=O)C(OC(C)=O)C1OC(C)=O` (stereo not given), the T/C runs as follows: (dose: 6.0 mg/kg/injection, schedule: Q04DX003 (sc), vehicle: Klucel (hydroxypropylcellulose) (HPC)) 95 % of control; (dose: 24.0 mg/kg/injection, schedule: Q04DX003 (sc), vehicle: Klucel (hydroxypropylcellulose) (HPC)) 77 % of control.

As to `COc1cccc(C2NC(=O)c3c(n[nH]c3N)S2)c1O` (stereo not given), the T/C was 50 % of control (dose: 150.0 mg/kg/injection, schedule: Q04DX003 (sc), vehicle: saline with Tween-80); 62 % of control under setting [7]; 77 % of control under setting [8]; 117 % of control under setting [1].

In the case of `COC(=O)C[C@](O)(CCC(C)(C)O)C(=O)O[C@@H]1C(OC)=C[C@]23CCCN2CCc2cc4c(cc2[C@H]13)OCO4`, the T/C reads like this: (dose: 0.15 mg/kg/injection, schedule: Q04DX003 (sc), vehicle: saline) 123 % of control; (dose: 0.31 mg/kg/injection, schedule: Q04DX003 (sc), vehicle: saline) 93 % of control; (dose: 0.63 mg/kg/injection, schedule: Q04DX003 (sc), vehicle: saline) 119 % of control; (dose: 1.25 mg/kg/injection, schedule: Q04DX003 (sc), vehicle: saline) 97 % of control.

For `Nc1nncs1`, the T/C was 92 % of control (dose: 3.13 mg/kg/injection, schedule: Q01DX010 (sc), vehicle: saline); 99 % of control (dose: 6.25 mg/kg/injection, schedule: Q01DX010 (sc), vehicle: saline); 86 % of control under setting [11].

For the compound `O=NN(CCCl)C(=O)NCCCl`, the T/C is, setting by setting: (dose: 2.0 mg/kg/injection, schedule: Q01DX010 (sc), vehicle: saline) 74 % of control; (dose: 4.0 mg/kg/injection, schedule: Q01DX010 (sc), vehicle: saline) 76 % of control; (dose: 4.0 mg/kg/injection, schedule: Q01DX010 (sc), vehicle: suspension in saline) 80 % of control; (dose: 7.5 mg/kg/injection, schedule: Q04DX003 (sc), vehicle: suspension in saline) 80 % of control; (dose: 8.0 mg/kg/injection, schedule: Q01DX010 (sc), vehicle: saline) 56 % of control; (dose: 8.0 mg/kg/injection, schedule: Q01DX010 (sc), vehicle: suspension in saline) 44 % of control. Besides, the T/C runs as follows: (dose: 15.0 mg/kg/injection, schedule: Q04DX003 (sc), vehicle: suspension in saline) 37 % of control and 52 % of control; (dose: 16.0 mg/kg/injection, schedule: Q01DX010 (sc), vehicle: suspension in saline) 2 % of control; (dose: 32.0 mg/kg/injection, schedule: Q01DX010 (sc), vehicle: saline) 2 % of control.

For the compound `Oc1cc2c3c(c1)c1cc4c(cc1c[n+]3CC2)OCO4`, the T/C is 72 % of control (dose: 200.0 mg/kg/injection, schedule: Q04DX003 (sc), vehicle: water); 100 % of control (dose: 400.0 mg/kg/injection, schedule: Q04DX003 (sc), vehicle: water); 72 % of control (dose: 1600.0 mg/kg/injection, schedule: Q04DX003 (sc), vehicle: water).

Take `CCOC(=O)C(N)CSC(=O)NC` (stereo not given): the T/C is 12 % of control (dose: 112.0 mg/kg/injection, schedule: Q04DX003 (sc), vehicle: saline); 33 % of control under setting [3]; 15 % of control (dose: 400.0 mg/kg/injection, schedule: Q04DX003 (sc), vehicle: saline); 8 % of control under setting [4]; 3 % of control (dose: 800.0 mg/kg/injection, schedule: Q04DX003 (sc), vehicle: saline).
